Experimental data from patent US20130071496A1, “CONTROLLED RELEASE COMPOSITION CONTAINING A STRONTIUM SALT” (Osteologix A/S, priority 2003, published 2013).
Read-outs that look alike come from different tables or passages of the source.

How the values were obtained:
[1] = Protocol: The solubility of the organic carboxylic acid strontium salts, were measured in water. The solubility of these salts was also measured as a function of temperature. This was performed by incubating the saturated solutions of the salts in temperature controlled incubators.
The buffered solutions were immersed into a bath of water temperature controlled at either room temperature (22-24° C.), at 30° C. or at 40° C. […] In order to eliminate any reminiscent strontium chloride influence on the determination of solubility, all the precipitate was collected at the bottom of the test tubes and the solutions above the precipitate were carefully removed and substituted by fresh solutions. […] From these solutions, the dissolved proportions of the strontium salt were collected in volumes of 1 mL at the specified temperature. The solutions were diluted to 50 mL before analysis by Flame Atomic Absorption Spectrometry (F-AAS).
Two methods were used for quantification of strontium in solutions: Flame Atomic Absorption Spectrometry (F-AAS), and the more sensitive inductively-coupled-plasmamass spectrometry (ICP-MS).
The solubilities were investigated as described above, and strontium content in the saturated solutions determined as described here below.
Some of the very soluble strontium salts were further diluted before analysis by F-AAS. The measurements were performed by using a Perkin-Elmer 2100 equipped with a hydrogen lamp for correction of the background signal. Strontium was measured at a slit with of 0.2 nm, the wavelength was 460.8 nm operated at an energy of 58 and a current of 8 mA.
This analysis was performed using a Perkin Elmer Elan 5000 system equipped with a cross-flow nebulizer. The power was set at 1000 W and the Argon-gas flow was 12 L/min and 0.8 L/min of the torch and plasma gas, respectively.

Remark: listed apart in the source
[2] = values quoted in scientific literature or reference material; cited from earlier work

Compound	SOLUBILITY AT 40° C., In water [1] [mg/L]	SOLUBILITY AT ROOM TEMPERATURE (22-24° C.), In water [1] [Mg/L]	solubility compared to the other organic strontium salts [1]	SOLUBILITY AT 40° C., pH 7.5 ([1]; pH 7.5) [mg/L]	SOLUBILITY AT ROOM TEMPERATURE (22-24° C.), pH 7.5 ([1]; pH 7.5) [Mg/L]	solubility in pH 7.5 buffered solution compared with pure water ([1]; pH 7.5)	time to maximum serum concentration (rat, in vivo, po)	Solubility, Measured ([1]; commercially available salts, in water at room temperature (22-24°)) [mg/mL]	Solubility, Expected Value 18° C. [2] [mg/mL]	time to maximum serum concentration (serum strontium, single oral gavage, rats)
O=C([O-])/C=C/C(=O)[O-].[Sr+2] [Fumerate, strontium fumarate]	444	571	poor solubility	977	1215					
O=C([O-])/C=C\C(=O)[O-].[Sr+2] [Maleate, strontium maleate]	2527	3002		1457	1680	decreased solubility in the buffered solution				
CC(=O)C(=O)O [Pyruvate, strontium pyruvate]		2204			1946					
N#Cc1c(N(CC(=O)[O-])CC(=O)[O-])sc(C(=O)[O-])c1CC(=O)[O-].[Sr+2].[Sr+2] [Ranelate, distrontium salt of 2-[N,N-di(carboxymethyl)amino]-3-cyano-4-carboxymethylthiophene-5-carboxylic acid, reference compound]	1450	760		1970	890		approximately 2 hours			
[Cl-].[Cl-].[Sr+2] [SrCl2, strontium chloride]								240	538	approximately 2 hours
